EC50 and CC50 data for three compounds are collected here from patent US20240343754A1, “7-SUBSTITUTED 7-DEAZAADENINE-CONTAINING 2',3'-CYCLIC DINUCLEOTIDES” (USTAV ORGANICKE CHEMIE A BIOCHEMIE AV CR, V. V. I., priority 2021, published 2024).

One may read the EC50 as the concentration at which the effect is half-maximal. The CC50 is the concentration that lowers cell viability or growth by half. Low readings indicate greater toxicity to the cells, high ones lower toxicity to the cells.

In series [1] the test system is Peripheral blood mononuclear cells (PBMC). The experiment in a line: PBMC assay: induction of cytokines INFα and INFγ. Type of series: cell-based. To be noted: Homo sapiens, PBMCs, 16 h incubation, mean from three different PBMC donors.
A short description of series [2]: Cytotoxic effect on PBMCs (CellTiter-Glo Luminescent Cell Viability Assay). Type of series: cell-based. Conditions: human, 16 h incubation, mean from three different PBMC donors. As to the method: Briefly, buffy coats were obtained from the Institute of Hematology and Blood Transfusion (Prague, Czech Republic). Informed written consent was signed by each volunteer. Isolation of PBMCs was performed on Ficoll density gradient centrifugation (Ficoll Paque Plus, GE Healthcare, USA) in SepMate tubes (SepMate PBMC Isolation Tubes, Stemcell Technologies, Canada). Obtained PBMCs were washed using PBS with 2 mM EDTA, and then seeded onto 96-well U-shape plates at density 500,000 cells per well in RPMI 1640 media with 10% (v/v) heat inactivated FBS. Serially diluted CDNs were added to cells and cells were incubated for 16 h (37° C., 5% CO2). After incubation, medium was collected to determine levels of INFα and INFγ using ProcartaPlex Assays and MAGPIX System (Merck, Germany) according to the manufacturer's instructions. Cytotoxic effect of CDNs on PBMCs was determined using CellTiter-Glo® Luminescent Cell Viability Assay (Promega Corporation, USA) according to manufacturer's instruction.
On the technique in general: ATP-based viability assays read luminescence as a measure of living cells.

Another series concerns the target wt hSTING (Homo sapiens, UniProt Q86WV6). Kind of series: Standard 293T reporter cell-based assay (IRF-3 dependent firefly luciferase reporter). To be noted: read-out: Standard assay EC50; 293T reporter cells expressing wt hSTING; 7 h incubation; mean of three independent experiments in triplicates, SD <50%. For orientation: Reporter assays use an easily measured gene product as a stand-in for the process of interest.

[3] abbreviates: read-out: PBMC assay EC50 INF α.
Setting [4] is: read-out: PBMC assay EC50 INF γ.

The structures appear in SMILES notation. Where two headings read alike, the source gives them in different places. A value given as a limit tells only on which side of the number the result lay.

Sequence of wt hSTING (Q86WV6 whole entry H232R): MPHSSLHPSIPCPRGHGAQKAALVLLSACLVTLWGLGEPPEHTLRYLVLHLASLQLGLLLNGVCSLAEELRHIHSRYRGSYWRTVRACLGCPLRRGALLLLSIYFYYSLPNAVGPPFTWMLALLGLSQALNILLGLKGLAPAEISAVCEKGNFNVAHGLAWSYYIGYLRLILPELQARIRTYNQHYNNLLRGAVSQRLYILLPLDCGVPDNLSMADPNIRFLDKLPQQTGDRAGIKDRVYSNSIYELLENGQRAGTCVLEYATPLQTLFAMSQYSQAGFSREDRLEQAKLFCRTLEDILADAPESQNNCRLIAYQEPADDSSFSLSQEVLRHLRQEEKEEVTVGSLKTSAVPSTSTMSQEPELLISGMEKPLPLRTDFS
Experimental for wt hSTING: Briefly, the day before testing cells were seeded onto 96-well white plates at density 250,000 cells per cm^2 in DMEM High glucose medium supplemented with 10% (v/v) heat inactivated fetal bovine albumin (FBS). The next day medium was removed, and cell were incubated for 7 h (37° C., 5% CO2) with serial dilution of compounds in medium. After incubation, Bright-Glo Luciferase Assay System reagent was added to cells and luminescence readout was performed on SPARK instrument (Tecan, Austria). EC50 values were determined using in software Prism (GraphPad, USA).

Take `Nc1nc2c(ncn2[C@@H]2O[C@@H]3COP(=O)(O)O[C@H]4[C@@H](O)[C@H](n5cc(-c6ccc(COc7cccc8ccccc78)cc6)c6c(N)ncnc65)O[C@@H]4COP(=O)(O)O[C@@H]2[C@@H]3O)c(=O)[nH]1` [Compound 1h, 2-amino-9-((5R,7R,8R,12aR,14R,15R,15aS,16R)-14-(4-amino-5-(4-((naphthalen-1-yloxy)methyl)phenyl)-7H-pyrrolo[2,3-d]pyrimidin-7-yl)-2,10,15,16-tetrahydroxy-2,10-dioxidooctahydro-12H-5,8-methanofuro[3,2-l][1,3,6,9,11]pentaoxa[2,10]diphosphacyclotetradecin-7-yl)-1,9-dihydro-6H-purin-6-one]: the concentration for a half-maximal effect (EC50) in series [1] (setting [3]) was found to be 1.97 µM; in series [1] (setting [4]), 1.08 µM; at wt hSTING, 2.58 µM. In series [2], the cytotoxic concentration (CC50) at 16 h was greater than 200 µM.
Consider `Nc1nc2c(ncn2[C@@H]2O[C@@H]3COP(=O)(O)O[C@H]4[C@@H](O)[C@H](n5cc(-c6cc7ccccc7o6)c6c(N)ncnc65)O[C@@H]4COP(=O)(O)O[C@@H]2[C@@H]3O)c(=O)[nH]1` [Compound 1k, 2-amino-9-((5R,7R,8R,12aR,14R,15R,15aS,16R)-14-(4-amino-5-(benzo[b]furan-2-yl)-7H-pyrrolo[2,3-d]pyrimidin-7-yl)-2,10,15,16-tetrahydroxy-2,10-dioxidooctahydro-12H-5,8-methanofuro[3,2-l][1,3,6,9,11]pentaoxa[2,10]diphosphacyclotetradecin-7-yl)-1,9-dihydro-6H-purin-6-one], for which the figures for the EC50 (in series [1] (setting [3]); in series [1] (setting [4]); on wt hSTING) were 13.8 µM, 8.48 µM and 10.9 µM, respectively. Also, the CC50 at 16 h in series [2] was greater than 200 µM.
Take `Nc1nc2c(ncn2[C@@H]2O[C@@H]3COP(=O)(O)O[C@H]4[C@@H](O)[C@H](n5cc(-c6cc7ccccc7s6)c6c(N)ncnc65)O[C@@H]4COP(=O)(O)O[C@@H]2[C@@H]3O)c(=O)[nH]1` [Compound 1l, 2-amino-9-((5R,7R,8R,12aR,14R,15R,15aS,16R)-14-(4-amino-5-(benzo[b]thiophen-2-yl)-7H-pyrrolo[2,3-d]pyrimidin-7-yl)-2,10,15,16-tetrahydroxy-2,10-dioxidooctahydro-12H-5,8-methanofuro[3,2-l][1,3,6,9,11]pentaoxa[2,10]diphosphacyclotetradecin-7-yl)-1,9-dihydro-6H-purin-6-one]: the EC50 came to 47.6 µM in series [1] (setting [3]), 47.5 µM in series [1] (setting [4]) and 8.69 µM on wt hSTING. The compound also yielded a CC50 at 16 h in series [2] greater than 200 µM.
